Assay results as given in patent EP4603105A1, “PHARMACEUTICAL COMPOSITION CONTAINING CYCLIC COMPOUND HAVING SELECTIVE KRAS INHIBITORY EFFECT AGAINST HRAS AND NRAS” (CHUGAI SEIYAKU KABUSHIKI KAISHA, priority 2022, dated 2024).
*1 amine or outer side, *2 acyl side, *3 side chain or, on linkers, in order; H or OH if unused. Where a SMILES comes first, the peptide text is derived from it. Bridges are numbered along the chain shown (N, C = ends). [ ]: non-standard residue; d: D form. The star is where a group is joined. X6 = CC(C)(C)CCN([C@@H](Cc1ccc(C(F)(F)F)cc1)C(=O)[*:2])[*:1]; hPhe(3-Cl-4-CF3) = N[C@@H](CCc1ccc(C(F)(F)F)c(Cl)c1)C(=O)O; NPrPhe(4-CF3) = CCCN[C@@H](Cc1ccc(C(F)(F)F)cc1)C(=O)O; X5 = Cc1ccc(C[C@@H](C(=O)[*:2])N(CCC(C)(C)C)[*:1])cc1; NPrPhe(4-Me) = CCCN[C@@H](Cc1ccc(C)cc1)C(=O)O; NEtPhe(4-Me) = CCN[C@@H](Cc1ccc(C)cc1)C(=O)O; NMeGly(cPent) = CN[C@H](C(=O)O)C1CCCC1; Hyp = O=C(O)[C@@H]1C[C@@H](O)CN1; NMeD = CN[C@@H](CC(=O)O)C(=O)O; NMeL = CN[C@@H](CC(C)C)C(=O)O; NMeV = CN[C@H](C(=O)O)C(C)C; Pip = O=C(O)[C@@H]1CCCCN1; Morpholide = C1CN(*)CCO1; NMeA = CN[C@@H](C)C(=O)O; Ac5c = NC1(C(=O)O)CCCC1; Aze = O=C(O)[C@@H]1CCN1; X4 = C1CCC(*)OC1; Sar = CNCC(=O)O

How the values were obtained:
[1] = biological target: GDP-bound NRAS wild-type protein (Homo sapiens, UniProt P01111); test: Binding to NRAS by surface plasmon resonance (SPR), KD and KD ratio to KRAS; conditions: ratio of KD for GDP-bound NRAS wild-type protein to KD for KRAS
Summary of the method: (§1)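 Affinity is measured by surface plasmon resonance at 30°C against captured, GDP-loaded RAS carrying a biotinylated Avi tag. Compounds are titrated by single-cycle kinetics, and KD comes from a 1:1 fit.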

[2] = system: human lung cancer strain NCI-H441; type: cell-based
Summary of the method: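 Readout: […] after the ATP-based reagent. Compound: serial dilutions in dimethyl sulfoxide.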

[3] = biological target: HRAS wild-type protein (Homo sapiens, UniProt P01112); test: Binding to HRAS by surface plasmon resonance (SPR), KD and KD ratio to KRAS; conditions: ratio of KD for HRAS wild-type protein to KD for KRAS
Summary of the method: as §1

[4] = biological target: GDP-bound KRAS wild-type protein (Homo sapiens, UniProt P01116); test: Binding to KRAS by surface plasmon resonance (SPR), dissociation constant KD
Method: Surface plasmon resonance was used to analyze the binding affinity of compounds for KRAS, NRAS, and HRAS. The apparatus used was Biacore 8K, 8K+, or T200 (GE Healthcare), and the running buffer used was HBS (10 mM HEPES-NaOH, 150 mM NaCl, pH 7.4) containing 1 mM DTT, 10 mM MgCl2, 0.01% Tween 20, 10 µM GDP, and 4% DMSO.
Biotinylated Avi-tag fusion KRAS, NRAS, and HRAS proteins were expressed in E. coli BL21 (DE3) strains, and after cells were homogenized, they were purified using Streptavidin Mutein Matrix and Superdex 75. After purification, GDP-loaded KRAS, NRAS, and HRAS proteins were immobilized on the surface of Sensor Chip CAP (Cytiva) coated with Biotin CAPture Reagent in an immobilization amount of about 100 to 300 RU. Binding of each compound was evaluated by the Single Cycle Kinetics method, and a running buffer or a compound solution was added to the RAS protein non-immobilized surface and the immobilized surface to obtain a binding response. The flow rate was set to 100 µL/min, and in the compound-adding cycle, compound solutions having different concentrations were intermittently added for 75 seconds each, starting from a low concentration. […] In the blank cycle, a running buffer was intermittently added and not the compound solution. The Biotin CAPture Reagent and RAS proteins were immobilized for each cycle, and at the end of each cycle, the sensor chip was regenerated by the regeneration solution appended to the Biotin CAPture Kit (Cytiva). Measurement was carried out at 30°C.
The resulting sensorgram was subjected to curve fitting based on a 1:1 binding model on Biacore Insight Evaluation Software or T200 Evaluation Software, and thereby the dissociation constant KD of each compound with respect to KRAS, NRAS, and HRAS was determined. […] Blank indicates a compound from which the KD value with respect to NRAS or HRAS was not obtained.

Sequence of GDP-bound KRAS wild-type protein (P01116 1-188 isoform P01116-2): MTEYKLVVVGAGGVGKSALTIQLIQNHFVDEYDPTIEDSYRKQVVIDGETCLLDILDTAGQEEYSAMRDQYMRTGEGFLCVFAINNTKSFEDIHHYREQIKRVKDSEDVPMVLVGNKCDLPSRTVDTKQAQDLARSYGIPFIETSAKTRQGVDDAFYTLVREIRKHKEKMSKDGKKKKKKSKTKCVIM
Sequence of HRAS wild-type protein (P01112 whole entry): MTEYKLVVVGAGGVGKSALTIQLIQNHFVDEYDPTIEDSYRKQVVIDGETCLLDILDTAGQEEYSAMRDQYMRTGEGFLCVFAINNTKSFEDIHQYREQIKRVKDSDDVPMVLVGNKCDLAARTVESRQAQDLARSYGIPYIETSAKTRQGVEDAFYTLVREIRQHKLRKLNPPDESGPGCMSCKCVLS
Sequence of GDP-bound NRAS wild-type protein (P01111 whole entry): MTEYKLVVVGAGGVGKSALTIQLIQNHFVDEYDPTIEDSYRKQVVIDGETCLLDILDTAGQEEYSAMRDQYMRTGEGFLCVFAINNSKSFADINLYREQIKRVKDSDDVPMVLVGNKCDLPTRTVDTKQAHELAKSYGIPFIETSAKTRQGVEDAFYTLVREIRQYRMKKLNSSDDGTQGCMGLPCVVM

Structure (SMILES)	NRAS /KRAS [1]	IC50 [2]	HRAS /KRAS [3]	Kd ([4]; 1:1 binding model)	Kd ([4]; Single Cycle Kinetics)
CCC[C@H]1C(=O)N[C@H]([C@@H](C)CC)C(=O)N(C)CC(=O)N(C)[C@H]2C/C=C\CCN(C2=O)[C@@H](Cc2ccc(C)cc2)C(=O)N(C)CC(=O)N[C@@H](CCc2cc(F)c(C(F)F)c(F)c2)C(=O)N2C[C@H](OCC)C[C@H]2C(=O)NC2(CC(C)(C)C2)C(=O)N(C)[C@@H](C(CC)CC)C(=O)N(C)[C@H](C(=O)N(C)C)CC(=O)N1C (stereo in doubt) [PP2783]	A (a compound having 10 or more and less than 20 is denoted as A)	33.9 nM	A (a compound having 10 or more and less than 20 is denoted as A)	1.7 nM	–
CC[C@H](C)[C@@H]1NC(=O)[C@H](CC(C)C)N(C)C(=O)C[C@@H](C(=O)N2CCOCC2)N(C)C(=O)[C@H](C(C)C)N(C)C(=O)C2(CCCC2)NC(=O)[C@@H]2CCCN2C(=O)[C@H](CCc2ccc(C(F)(F)F)c(Cl)c2)NC(=O)CN(C)C(=O)[C@H](Cc2ccc(C)cc2)N(CC)C(=O)CN(C)C(=O)CN(C)C1=O [PP0044] ([NMeL]I[Sar][Sar][NEtPhe(4-Me)][Sar][hPhe(3-Cl-4-CF3)]P[Ac5c][NMeV][NMeD]-Morpholide; lactam N-11)	C (A compound having a KD ratio of 0.1 or more and less than 3 is denoted as C)	142 nM	C (A compound having a KD ratio of 0.1 or more and less than 3 is denoted as C)	3.6 nM	–
CC[C@H](C)[C@@H]1NC(=O)[C@H](CC(C)C)N(C)C(=O)C[C@@H](C(=O)N2CCOCC2)N(C)C(=O)[C@H](C2CCCC2)N(C)C(=O)C2(CCCC2)NC(=O)[C@@H]2C[C@@H](OC3CCCCO3)CN2C(=O)[C@H](CCc2ccc(C(F)(F)F)c(Cl)c2)NC(=O)CN(C)C(=O)[C@H](Cc2ccc(C)cc2)N(CC)C(=O)[C@@H]2CCN2C(=O)[C@H](C)N(C)C1=O (some centres unmarked) [PP0067] ([NMeL]I[NMeA][Aze][NEtPhe(4-Me)][Sar][hPhe(3-Cl-4-CF3)][Hyp](X4)[Ac5c][NMeGly(cPent)][NMeD]-Morpholide; lactam N-11)	C (A compound having a KD ratio of 0.1 or more and less than 3 is denoted as C)	2.7 nM	C (A compound having a KD ratio of 0.1 or more and less than 3 is denoted as C)	0.072 nM	–
CC[C@H](C)[C@@H]1NC(=O)[C@H](CC(C)C)N(C)C(=O)C[C@@H](C(=O)N2CCOCC2)N(C)C(=O)[C@H](C2CCCC2)N(C)C(=O)C2(CCCC2)NC(=O)[C@@H]2C[C@@H](OC3CCCCO3)CN2C(=O)[C@H](CCc2ccc(C(F)(F)F)c(Cl)c2)NC(=O)CN(C)C(=O)[C@H](Cc2ccc(C)cc2)N(CC)C(=O)CN(C)C(=O)CN(C)C1=O (some centres unmarked) [PP0068] ([NMeL]I[Sar][Sar][NEtPhe(4-Me)][Sar][hPhe(3-Cl-4-CF3)][Hyp](X4)[Ac5c][NMeGly(cPent)][NMeD]-Morpholide; lactam N-11)	C (A compound having a KD ratio of 0.1 or more and less than 3 is denoted as C)	9.1 nM	C (A compound having a KD ratio of 0.1 or more and less than 3 is denoted as C)	0.14 nM	–
CCCN1C(=O)[C@@H]2CCN2C(=O)[C@@H]2CCCCN2C(=O)[C@H]([C@@H](C)CC)NC(=O)[C@H](CC(C)C)N(C)C(=O)C[C@@H](C(=O)N2CCOCC2)N(C)C(=O)[C@H](C2CCCC2)N(C)C(=O)C2(CCCC2)NC(=O)[C@@H]2CCCN2C(=O)[C@H](CCc2ccc(C(F)(F)F)c(Cl)c2)NC(=O)CN(C)C(=O)[C@@H]1Cc1ccc(C)cc1 [PP0070] ([NMeL]I[Pip][Aze][NPrPhe(4-Me)][Sar][hPhe(3-Cl-4-CF3)]P[Ac5c][NMeGly(cPent)][NMeD]-Morpholide; lactam N-11)	C (A compound having a KD ratio of 0.1 or more and less than 3 is denoted as C)	2.1 nM	B (a compound having 3 or more and less than 10 is denoted as B)	0.16 nM	–
CCCN1C(=O)[C@@H]2CCN2C(=O)[C@@H]2CCCCN2C(=O)[C@H]([C@@H](C)CC)NC(=O)[C@H](CC(C)C)N(C)C(=O)C[C@@H](C(=O)N2CCOCC2)N(C)C(=O)[C@H](C2CCCC2)N(C)C(=O)C2(CCCC2)NC(=O)[C@@H]2CCCN2C(=O)[C@H](CCc2ccc(C(F)(F)F)c(Cl)c2)NC(=O)CN(C)C(=O)[C@@H]1Cc1ccc(C(F)(F)F)cc1 [PP0077] ([NMeL]I[Pip][Aze][NPrPhe(4-CF3)][Sar][hPhe(3-Cl-4-CF3)]P[Ac5c][NMeGly(cPent)][NMeD]-Morpholide; lactam N-11)	C (A compound having a KD ratio of 0.1 or more and less than 3 is denoted as C)	5.3 nM	B (a compound having 3 or more and less than 10 is denoted as B)	0.2 nM	–
CC[C@H](C)[C@@H]1NC(=O)[C@H](CC(C)C)N(C)C(=O)C[C@@H](C(=O)N2CCOCC2)N(C)C(=O)[C@H](C2CCCC2)N(C)C(=O)C2(CCCC2)NC(=O)[C@@H]2CCCN2C(=O)[C@H](CCc2ccc(C(F)(F)F)c(Cl)c2)NC(=O)CN(C)C(=O)[C@H](Cc2ccc(C)cc2)N(CCC(C)(C)C)C(=O)[C@@H]2CCN2C(=O)[C@H](C)N(C)C1=O [PP0087] ([NMeL]I[NMeA][Aze][X5][Sar][hPhe(3-Cl-4-CF3)]P[Ac5c][NMeGly(cPent)][NMeD]-Morpholide; lactam N-11)	C (A compound having a KD ratio of 0.1 or more and less than 3 is denoted as C)	24 nM	C (A compound having a KD ratio of 0.1 or more and less than 3 is denoted as C)	0.75 nM	–
CC[C@H](C)[C@@H]1NC(=O)[C@H](CC(C)C)N(C)C(=O)C[C@@H](C(=O)N2CCOCC2)N(C)C(=O)[C@H](C2CCCC2)N(C)C(=O)C2(CCCC2)NC(=O)[C@@H]2CCCN2C(=O)[C@H](CCc2ccc(C(F)(F)F)c(Cl)c2)NC(=O)CN(C)C(=O)[C@H](Cc2ccc(C(F)(F)F)cc2)N(CCC(C)(C)C)C(=O)[C@@H]2CCN2C(=O)[C@H](C)N(C)C1=O [PP0113] ([NMeL]I[NMeA][Aze][X6][Sar][hPhe(3-Cl-4-CF3)]P[Ac5c][NMeGly(cPent)][NMeD]-Morpholide; lactam N-11)	C (A compound having a KD ratio of 0.1 or more and less than 3 is denoted as C)	7.1 nM	B (a compound having 3 or more and less than 10 is denoted as B)	0.75 nM	–
C=CCCCC[C@H]1C(=O)N[C@@H]([C@@H](C)CC)C(=O)N(C)CC(=O)N(C)[C@H]2CCCCCN(C2=O)[C@@H](Cc2ccc(C(F)(F)F)cc2)C(=O)N(C)CC(=O)N[C@@H](CCc2cc(F)c(C(F)(F)F)c(F)c2)C(=O)N2C[C@H](OCC)C[C@H]2C(=O)N[C@](C)(CC=C)C(=O)N(C)[C@@H](C2CCCC2)C(=O)N(C)[C@H](C(=O)N2CCOCC2)CC(=O)N1C [PP0881]	–	374 nM	–	–	5.5 nM
CC[C@H](C)[C@@H]1NC(=O)[C@H](CC(C)C)N(C)C(=O)C[C@@H](C(=O)N(C)C)N(CCC2CCCC2)C(=O)[C@H](C2CCCC2)N(C)C(=O)C2(CCCC2)NC(=O)[C@@H]2CCCN2C(=O)[C@H](CCc2ccc(C(F)(F)F)c(Cl)c2)NC(=O)CN(C)C(=O)[C@H](Cc2ccc(F)cc2)N2CCCCC[C@@H](C2=O)N(C)C(=O)CN(C)C1=O [PP0975]	–	1570 nM	–	–	8.9 nM
CC[C@H](C)[C@@H]1NC(=O)[C@H](CC(C)C)N(C)C(=O)C[C@@H](C(=O)N2CCOCC2)N(C)C(=O)[C@H](C2CCCC2)N(C)C(=O)C2(CCC2)NC(=O)[C@@H]2[C@@H](OCCC(F)(F)F)CCN2C(=O)[C@H](CCc2cc(F)c(C(F)(F)F)c(F)c2)NC(=O)CN(C)C(=O)[C@H](Cc2ccc(C(F)(F)F)cc2)N2CCCCC[C@@H](C2=O)N(C)C(=O)CN(C)C1=O [PP1008]	–	102 nM	–	–	1.1 nM
